Source: US10385022B2, “3-amino-pyridines as GPBAR1 agonists” (HOFFMANN-LA ROCHE INC., priority 2011, dated 2019)
pEC50: −log10 of the molar value.

What follows are compounds tested against human GPBAR1 receptor (Homo sapiens (Human), UniProt Q8TDU6) (assay: functional cAMP assay in CHO-dhfr(minus) cells expressing human GPBAR1 receptors). Details: CHO-dhfr(minus) cells expressing human GPBAR1, 30 min at 30° C.
Chain of human GPBAR1 receptor (Q8TDU6 whole entry): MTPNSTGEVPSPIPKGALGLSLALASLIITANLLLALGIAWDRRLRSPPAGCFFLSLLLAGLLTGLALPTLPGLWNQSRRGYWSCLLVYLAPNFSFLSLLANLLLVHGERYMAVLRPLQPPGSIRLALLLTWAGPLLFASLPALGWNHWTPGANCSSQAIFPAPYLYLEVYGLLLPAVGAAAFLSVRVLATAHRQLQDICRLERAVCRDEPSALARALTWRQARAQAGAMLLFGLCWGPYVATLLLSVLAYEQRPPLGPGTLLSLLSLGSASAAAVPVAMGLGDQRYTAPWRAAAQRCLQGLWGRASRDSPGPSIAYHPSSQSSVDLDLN
Assay type: cell-based
Procedure, shortened: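 CHO-dhfr- cells were transfected with human GPBAR1, and a clone was chosen by cAMP response to lithocholic acid. EC50 values come from the cAMP read-out; specificity was checked in non-transfected CHO cells.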
For `COc1cc(F)ccc1-c1cc(C)ncc1N(C)C(=O)c1cc(C(F)(F)F)cc(S(=O)(=O)N2CCOCC2)c1` [Example 302, N-[4-(4-Fluoro-2-methoxy-phenyl)-6-methyl-pyridin-3-yl]-N-methyl-3-(morpholine-4-sulfonyl)-5-trifluoromethyl-benzamide], the pEC50 was < 5.00. `Cc1nn(C)c(C)c1-c1ccncc1N(C)C(=O)c1cc(C(F)(F)F)cc(C(F)(F)F)c1` [Example 208, N-Methyl-3,5-bis-trifluoromethyl-N-[4-(1,3,5-trimethyl-1H-pyrazol-4-yl)-pyridin-3-yl]-benzamide] gave a pEC50 of 5.53. Compound `CN(C(=O)c1cc(C(F)(F)F)cc(C(F)(F)F)c1)c1cnccc1-c1ccccc1C(F)(F)F` [Example 28, N-Methyl-3,5-bis-trifluoromethyl-N-[4-(2-trifluoromethyl-phenyl)-pyridin-3-yl]-benzamide] has a pEC50 of 6.06. `Cc1ccccc1-c1ccncc1N(C)C(=O)c1cc(N)cc(C(F)(F)F)c1` [Example 164, 3-amino-N-methyl-N-(4-o-tolylpyridin-3-yl)-5-(trifluoromethyl)benzamide] was tested, and the pEC50 was 5.77. For `COc1cc(F)ccc1-c1ccncc1N(C)C(=O)c1cc(SCCO)cc(C(F)(F)F)c1` [Example 216, N-[4-(4-Fluoro-2-methoxy-phenyl)-pyridin-3-yl]-3-(2-hydroxy-ethylsulfanyl)-N-methyl-5-trifluoromethyl-benzamide], the pEC50 was 7.42. Compound `COc1cc(F)ccc1-c1ccncc1N(C)C(=O)c1cc(C(F)(F)F)cc(S(=O)(=O)N2CC3(COC3)C2)c1` [Example 305, N-[4-(4-Fluoro-2-methoxy-phenyl)-pyridin-3-yl]-N-methyl-3-(2-oxa-6-aza-spiro[3.3]heptane-6-sulfonyl)-5-trifluoromethyl-benzamide] has a pEC50 of 8.30. `CN(C(=O)c1cc(C(F)(F)F)cc(C(F)(F)F)c1)c1cnccc1-c1cccc(F)c1Cl` [Example 65, N-[4-(2-Chloro-3-fluoro-phenyl)-pyridin-3-yl]-N-methyl-3,5-bis-trifluoromethyl-benzamide] showed a pEC50 of 6.99. `COc1cc(F)ccc1-c1ccncc1N(CC(N)=O)C(=O)c1cc(C(F)(F)F)cc(S(C)(=O)=O)c1` [Example 187, N-Carbamoylmethyl-N-[4-(4-fluoro-2-methoxy-phenyl)-pyridin-3-yl]-3-methanesulfonyl-5-trifluoromethyl-benzamide] gave a pEC50 of 6.32. `COc1cc(F)ccc1-c1ccncc1N(CC1CCCCO1)C(=O)c1cc(C(F)(F)F)cc(S(C)(=O)=O)c1` (single isomer, unassigned; (+)) [Example 291, (+)-N-[4-(4-Fluoro-2-methoxy-phenyl)-pyridin-3-yl]-3-methanesulfonyl-N-[1-(tetrahydro-pyran-2-yl)methyl]-5-trifluoromethyl-benzamide] showed a pEC50 of 5.55. With `COC(=O)CN(C(=O)c1cc(C(F)(F)F)nc(C(F)(F)F)c1)c1cnccc1-c1c(F)cccc1OC` [Example 195, Methyl 2-(N-(4-(2-fluoro-6-methoxyphenyl)pyridin-3-yl)-2,6-bis(trifluoromethyl)isonicotinamido)acetate] the pEC50 was 7.89. `COc1cc(F)c(F)cc1-c1ccncc1N(C)C(=O)c1cc(F)cc(C(F)(F)F)c1` [Example 130, N-[4-(4,5-Difluoro-2-methoxy-phenyl)-pyridin-3-yl]-3-fluoro-N-methyl-5-trifluoromethyl-benzamide] showed a pEC50 of 6.78. Work on `Cc1ccccc1-c1ccncc1N(C)C(=O)c1cccc(C(F)(F)F)c1` [Example 2, N-Methyl-N-(4-o-tolyl-pyridin-3-yl)-3-trifluoromethyl-benzamide] yielded a pEC50 of 6.14. Compound `CCc1cc(-c2ccccc2C)c(N(C)C(=O)c2cc(C(F)(F)F)cc(C(F)(F)F)c2)cn1` [Example 220, N-(6-Ethyl-4-o-tolyl-pyridin-3-yl)-N-methyl-3,5-bis-trifluoromethyl-benzamide] has a pEC50 of 5.70. Work on `COc1cc(F)ccc1-c1ccncc1N(C)C(=O)c1cc(SCCNS(C)(=O)=O)cc(C(F)(F)F)c1` [Example 262, N-[4-(4-Fluoro-2-methoxy-phenyl)-pyridin-3-yl]-3-(2-methanesulfonylamino-ethylsulfanyl)-N-methyl-5-trifluoromethyl-benzamide] yielded a pEC50 of 6.64. Compound `CN(C(=O)c1cc(C(F)(F)F)cc(S(C)(=O)=O)c1)c1cnccc1-c1ccccc1` [Example 323, 3-Methanesulfonyl-N-methyl-N-(4-phenyl-pyridin-3-yl)-5-trifluoromethyl-benzamide] has a pEC50 of 6.98. Compound `Cc1cc(F)ccc1-c1ccncc1N(C)C(=O)c1cc(Cl)cc(Cl)c1` [Example 24, 3,5-Dichloro-N-[4-(4-fluoro-2-methyl-phenyl)-pyridin-3-yl]-N-methyl-benzamide] has a pEC50 of 6.84. With `CS(=O)(=O)c1cc(C(=O)N(CC(N)=O)c2cnccc2-c2ccccc2Cl)cc(C(F)(F)F)c1` [Example 296, N-Carbamoylmethyl-N-[4-(2-chloro-phenyl)-pyridin-3-yl]-3-methanesulfonyl-5-trifluoromethyl-benzamide] the pEC50 was 5.87. In the case of `Cc1ccccc1-c1ccncc1N(C)C(=O)c1cc(N2CCCC2=O)cc(C(F)(F)F)c1` [Example 185, N-Methyl-3-(2-oxo-pyrrolidin-1-yl)-N-(4-o-tolyl-pyridin-3-yl)-5-trifluoromethyl-benzamide], the pEC50 was 5.62. Compound `COc1cc(F)ccc1-c1cc(C)ncc1N(C)C(=O)c1cc(C(F)(F)F)cc(S(C)(=O)=O)c1` [Example 202, N-[4-(4-Fluoro-2-methoxy-phenyl)-6-methyl-pyridin-3-yl]-3-methanesulfonyl-N-methyl-5-trifluoromethyl-benzamide] has a pEC50 of 6.80. Compound `Cc1cc(F)ccc1-c1cc(Cl)ncc1N(C)C(=O)c1cc(C(F)(F)F)cc(C(F)(F)F)c1` [Example 72, N-[6-Chloro-4-(4-fluoro-2-methyl-phenyl)-pyridin-3-yl]-N-methyl-3,5-bis-trifluoromethyl-benzamide] has a pEC50 of 6.23. Work on `Cc1cc(-c2cc(F)ccc2C)c(N(C)C(=O)c2cc(C(F)(F)F)cc(S(C)(=O)=O)c2)cn1` [Example 264, N-[4-(5-Fluoro-2-methyl-phenyl)-6-methyl-pyridin-3-yl]-3-methanesulfonyl-N-methyl-5-trifluoromethyl-benzamide] yielded a pEC50 of 5.62. For `CS(=O)(=O)c1cc(C(=O)N(CC(F)(F)F)c2cnccc2-c2ccccc2F)cc(C(F)(F)F)c1` [Example 214, N-[4-(2-Fluoro-phenyl)-pyridin-3-yl]-3-methanesulfonyl-N-(2,2,2-trifluoro-ethyl)-5-trifluoromethyl-benzamide], the pEC50 was 6.58. In the case of `COc1ncccc1-c1ccncc1N(CC(F)(F)F)C(=O)c1cc(F)cc(C(F)(F)F)c1` [Example 141, 3-Fluoro-N-(2-methoxy-[3,4′]bipyridinyl-3′-yl)-N-(2,2,2-trifluoro-ethyl)-5-trifluoromethyl-benzamide], the pEC50 was 5.78. In the case of `COc1cc(F)ccc1-c1cc(C)ncc1N(C)C(=O)c1cc(C(F)(F)F)cc(S(=O)(=O)CCCCC(=O)NCC(=O)O)c1` [Example 317, [5-(3-{[4-(4-Fluoro-2-methoxy-phenyl)-6-methyl-pyridin-3-yl]-methyl-carbamoyl}-5-trifluoromethyl-benzenesulfonyl)-pentanoylamino]-acetic acid], the pEC50 was 6.38. Compound `Cc1ccccc1-c1ccncc1N(C)C(=O)c1cc(C(F)(F)F)ccc1F` [Example 4, 2-Fluoro-N-methyl-N-(4-o-tolyl-pyridin-3-yl)-5-trifluoromethyl-benzamide] has a pEC50 of 6.61. With `O=C(c1cc(C(F)(F)F)cc(C(F)(F)F)c1)N(CC1CC1)c1cnccc1-c1ccccc1Cl` [Example 86, N-[4-(2-Chloro-phenyl)-pyridin-3-yl]-N-cyclopropylmethyl-3,5-bis-trifluoromethyl-benzamide] the pEC50 was 6.57. `COc1cc(F)c(F)cc1-c1ccncc1N(CC(F)(F)F)C(=O)c1cc(C(F)(F)F)cc(S(C)(=O)=O)c1` [Example 139, N-[4-(4,5-Difluoro-2-methoxy-phenyl)-pyridin-3-yl]-3-methanesulfonyl-N-(2,2,2-trifluoro-ethyl)-5-trifluoromethyl-benzamide] showed a pEC50 of 6.22. `COC(=O)CCS(=O)(=O)c1cc(C(=O)N(C)c2cnccc2-c2ccc(F)cc2OC)cc(C(F)(F)F)c1` [Example 224, 3-(3-{[4-(4-Fluoro-2-methoxy-phenyl)-pyridin-3-yl]-methyl-carbamoyl}-5-trifluoromethyl-benzenesulfonyl)-propionic acid methyl ester] gave a pEC50 of 7.34. Work on `CN(C(=O)c1cc(C(F)(F)F)cc(C(F)(F)F)c1)c1cnccc1-c1ccccc1CCO` [Example 93, N-{4-[2-(2-Hydroxy-ethyl)-phenyl]-pyridin-3-yl}-N-methyl-3,5-bis-trifluoromethyl-benzamide] yielded a pEC50 of 5.65. `COc1cc(F)ccc1-c1ccncc1N(C)C(=O)c1cc(C(F)(F)F)nc(S(C)(=O)=O)c1` [Example 221, N-[4-(4-Fluoro-2-methoxy-phenyl)-pyridin-3-yl]-2-methanesulfonyl-N-methyl-6-trifluoro-methyl-isonicotinamide] gave a pEC50 of 7.23. `COc1cc(F)ccc1-c1ccncc1N(CC(F)(F)F)C(=O)c1cc(F)cc(C(F)(F)F)c1` [Example 134, 3-Fluoro-N-[4-(4-fluoro-2-methoxy-phenyl)-pyridin-3-yl]-N-(2,2,2-trifluoro-ethyl)-5-trifluoromethyl-benzamide] gave a pEC50 of 6.04. `COc1cc(F)ccc1-c1ccncc1N(C)C(=O)c1cc(Cl)nc(C(F)(F)F)c1` [Example 169, 2-Chloro-N-[4-(4-fluoro-2-methoxy-phenyl)-pyridin-3-yl]-N-methyl-6-trifluoromethyl-isonicotinamide] gave a pEC50 of 7.59. For `Cc1ccccc1-c1ccncc1N(C)C(=O)c1cc(C(F)(F)F)cc(S(=O)(=O)N(C)C)c1` [Example 128, 3-Dimethylsulfamoyl-N-methyl-N-(4-o-tolyl-pyridin-3-yl)-5-trifluoromethyl-benzamide], the pEC50 was 7.54. `Cc1ccccc1-c1ccncc1N(C)C(=O)c1ccc(C)c(C(F)(F)F)c1` [Example 91, 4,N-Dimethyl-N-(4-o-tolyl-pyridin-3-yl)-3-trifluoromethyl-benzamide] showed a pEC50 of 6.82.
